Columns and labels:
Details in all cases: incubation time: 72 h
BT-474 [1] = test: normalised response (% of control), CellTox Green; higher = less cell death (100 = DMSO, 0 = benzethonium chloride kill control)
How it was run: (§1)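 Breast cancer cell lines were exposed for 72 h in 384-well plates to compound at 5 concentrations, 10-fold apart, covering a 10,000-fold range fixed for each compound. Plates were read for CellTox Green fluorescence and CellTiter-Glo luminescence and normalised to 0.1 % DMSO (100) and a positive kill control (0). Each value is the normalised signal at one concentration of the series.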

BT-549 [2] = test: as above
How it was run: as §1

CAL-120 [3] = test: as above
How it was run: as §1

CAL-148 [4] = test: as above
How it was run: as §1

CAL-51 [5] = test: as above
How it was run: as §1

CAL-85-1 [6] = test: as above
How it was run: as §1

DU-4475 [7] = test: as above
How it was run: as §1

HCC1143 [8] = test: as above
How it was run: as §1

HCC1599 [9] = test: as above
How it was run: as §1

HCC1937 [10] = test: as above
How it was run: as §1

HDQ-P1 [11] = test: as above
How it was run: as §1

Hs578T [12] = test: as above
How it was run: as §1

MCF-10A [13] = test: as above
How it was run: as §1

MDA-MB-231 [14] = test: as above
How it was run: as §1

MDA-MB-436 [15] = test: as above
How it was run: as §1

MDA-MB-453 [16] = test: as above
How it was run: as §1

MDA-MB-468 [17] = test: as above
How it was run: as §1

MFM-223 [18] = test: as above
How it was run: as §1

BT-474 [19] = test: normalised response (% of control), CellTiter-Glo; higher = more viable cells (100 = DMSO, 0 = benzethonium chloride kill control)
Description: (§2)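 DSRT, 72 h incubation, CellTox Green / CellTiter-Glo readout. Signal is normalised to DMSO and benzethonium chloride controls. Value is the normalised response at dose 3.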

BT-549 [20] = test: as above
Description: as §2

CAL-120 [21] = test: as above
Description: as §2

CAL-148 [22] = test: as above
Description: as §2

CAL-51 [23] = test: as above
Description: as §2

CAL-85-1 [24] = test: as above
Description: as §2

DU-4475 [25] = test: as above
Description: as §2

HCC1143 [26] = test: as above
Description: as §2

HCC1599 [27] = test: as above
Description: as §2

HCC1937 [28] = test: as above
Description: as §2

HDQ-P1 [29] = test: as above
Description: as §2

Hs578T [30] = test: as above
Description: as §2

MCF-10A [31] = test: as above
Description: as §2

MDA-MB-231 [32] = test: as above
Description: as §2

MDA-MB-436 [33] = test: as above
Description: as §2

MDA-MB-453 [34] = test: as above
Description: as §2

MDA-MB-468 [35] = test: as above
Description: as §2

MFM-223 [36] = test: as above
Description: as §2

SK-BR-3 = test: as above
Description: as §2

Row | Structure (SMILES) | normalised response (BT-474 [1]) [%] | normalised response (BT-549 [2]) [%] | normalised response (CAL-120 [3]) [%] | normalised response (CAL-148 [4]) [%] | normalised response (CAL-51 [5]) [%] | normalised response (CAL-85-1 [6]) [%] | normalised response (DU-4475 [7]) [%] | normalised response (HCC1143 [8]) [%] | normalised response (HCC1599 [9]) [%] | normalised response (HCC1937 [10]) [%] | normalised response (HDQ-P1 [11]) [%] | normalised response (Hs578T [12]) [%] | normalised response (MCF-10A [13]) [%] | normalised response (MDA-MB-231 [14]) [%] | normalised response (MDA-MB-436 [15]) [%] | normalised response (MDA-MB-453 [16]) [%] | normalised response (MDA-MB-468 [17]) [%] | normalised response (MFM-223 [18]) [%] | normalised response (BT-474 [19]) [%] | normalised response (BT-549 [20]) [%] | normalised response (CAL-120 [21]) [%] | normalised response (CAL-148 [22]) [%] | normalised response (CAL-51 [23]) [%] | normalised response (CAL-85-1 [24]) [%] | normalised response (DU-4475 [25]) [%] | normalised response (HCC1143 [26]) [%] | normalised response (HCC1599 [27]) [%] | normalised response (HCC1937 [28]) [%] | normalised response (HDQ-P1 [29]) [%] | normalised response (Hs578T [30]) [%] | normalised response (MCF-10A [31]) [%] | normalised response (MDA-MB-231 [32]) [%] | normalised response (MDA-MB-436 [33]) [%] | normalised response (MDA-MB-453 [34]) [%] | normalised response (MDA-MB-468 [35]) [%] | normalised response (MFM-223 [36]) [%] | normalised response (SK-BR-3) [%]
1 | N#Cc1ccc(COC[C@H]2O[C@@H](n3c(NCc4ccc(Cl)c(Cl)c4)nc4c(N)ncnc43)[C@H](O)[C@@H]2O)cc1 (100 nM) | 100 | 99.3 | 99.7 | 104 | 114 | 101 | 106 | 108 | 115 | 60.8 | 85.9 | 114 | 97.2 | 86.9 | 96 | 110 | 130 | 108 | 98.6 | 103 | 108 | 104 | 97.2 | 104 | 103 | 103 | 98.3 | 95.3 | 101 | 95.2 | 102 | 111 | 110 | 95.7 | 100 | 110 | 104
2 | COCC[n+]1c2c(n(Cc3cnccn3)c1C)C(=O)c1ccccc1C2=O [YM155] (100 nM) | -29.1 | 88.9 | -16.3 | 18.9 | 21.2 | -130 | 92.8 | 75.2 | 71.7 | 22.8 | -5.41 | 106 | -8.31 | 0.07 | 19.2 | 87.8 | -69.5 | 70.4 | 5.9 | 36.9 | -0.1 | 0.53 | 2.89 | -0.47 | 20.4 | 1.4 | 9.07 | 0.92 | 1.96 | 62 | 6.51 | 1.55 | 1.98 | 27.8 | 0.08 | 26.2 | 4.6
3 | Cc1[nH]c2ccccc2c1CCNCc1ccc(/C=C/C(=O)NO)cc1 [Panobinostat] (10 nM) | 75.8 | 106 | 99.7 | 83.1 | 99.8 | 89.9 | 95.4 | 76.1 | 96.4 | 99.2 | 102 | 106 | 110 | 86.3 | 82.3 | 81.9 | 70.6 | 94.9 | 94.3 | 99.7 | 85.3 | 83.1 | 73.7 | 77.1 | 84 | 88.5 | 94.8 | 81.5 | 93.3 | 88.1 | 99.6 | 88.4 | 83.5 | 50.6 | 84.6 | 90.8 | 65.8
4 | CCn1c(-c2nonc2N)nc2cnc(Oc3cccc(NC(=O)c4ccc(OCCN5CCOCC5)cc4)c3)cc21 (100 nM) | 103 | 90.2 | 102 | 98.4 | 63.3 | 98.3 | 100 | 101 | 96.8 | 108 | 105 | 66.9 | 97.3 | 79.4 | 82 | 101 | 119 | 95.4 | 81.8 | 88.6 | 81.9 | 99.6 | 80 | 95.5 | 95.4 | 103 | 95.9 | 102 | 99.6 | 80.5 | 75.6 | 86.5 | 103 | 97.1 | 91.4 | 98 | 97.9
5 | CNC(=O)c1ccc(N2C(=S)N(c3ccc(C#N)c(C(F)(F)F)c3)C(=O)C2(C)C)cc1F [Enzalutamide] (100 nM) | 103 | 103 | 106 | 100 | 74.8 | 117 | 107 | 111 | 103 | 94.6 | 71.9 | 95.1 | 86.1 | 113 | 96.9 | 106 | 126 | 101 | 99.7 | 97.1 | 106 | 106 | 70.4 | 108 | 99.1 | 101 | 113 | 91.1 | 97.4 | 102 | 108 | 95.9 | 101 | 105 | 102 | 104 | 101
6 | CNC(=O)c1cc(Oc2ccc(NC(=O)Nc3ccc(Cl)c(C(F)(F)F)c3)c(F)c2)ccn1 [Regorafenib] (100 nM) | 98.9 | 109 | 99.8 | 101 | 105 | 108 | 103 | 87.8 | 108 | 99.6 | 101 | 99.4 | 98.1 | 74.6 | 90.9 | 103 | 135 | 88.1 | 99 | 103 | 98.1 | 112 | 97.5 | 99.8 | 100 | 100 | 91.2 | 100 | 98.8 | 108 | 105 | 101 | 106 | 105 | 94.3 | 102 | 105
7 | CCc1c2c(nc3ccc(OC(=O)N4CCC(N5CCCCC5)CC4)cc13)-c1cc3c(c(=O)n1C2)COC(=O)[C@]3(O)CC [Irinotecan] (100 nM) | 92.4 | 93.4 | 98.7 | 104 | 106 | 94.9 | 101 | 86 | 99.7 | 98 | 117 | 77.4 | 109 | 89.2 | 93.4 | 102 | 99.2 | 73.8 | 99.2 | 95.3 | 92.5 | 96.6 | 109 | 103 | 98.8 | 96 | 112 | 94.8 | 96.5 | 98 | 95.4 | 96.2 | 93.8 | 102 | 111 | 106 | 100
8 | C=C1C[C@@H]2[C@H](CC[C@]3(C)C(=O)CC[C@@H]23)[C@@]2(C)C=CC(=O)C=C12 [Exemestane] (100 nM) | 104 | 92.8 | 102 | 89 | 116 | 101 | 109 | 99.6 | 112 | 56.9 | 94.5 | 86.8 | 109 | 117 | 109 | 108 | 50 | 107 | 98.6 | 101 | 106 | 109 | 111 | 103 | 106 | 104 | 104 | 94.8 | 102 | 104 | 110 | 107 | 103 | 106 | 101 | 106 | 106
